# Laboratory results reported in patent US8952024B2, “Herbicidal pyrimidone derivatives” (E I du Pont de Nemours and Company, priority 2009, dated 2015).
# Tests used:
# Assay in all cases: Test B pre-/postemergence plant response
# Format in all cases: in vivo
# [1] = system: giant foxtail (Setaria faberii)
# How it was run: (§1)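 Plants treated either at seeding (loam/sand soil) or postemergence at 2 to 18 cm height, using a surfactant-containing non-phytotoxic solvent formulation. Evaluation was visual after 13 to 15 days, 0 to 100 scale relative to controls.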
# [2] = system: Italian ryegrass (Lolium multiflorum)
# How it was run: as §1
# [3] = system: johnsongrass (Sorghum halepense)
# How it was run: as §1
# [4] = system: ragweed (common ragweed, Ambrosia elatior)
# How it was run: as §1
# [5] = system: bermudagrass (Cynodon dactylon)
# How it was run: as §1
# [6] = system: goosegrass (Eleusine indica)
# How it was run: as §1
# [7] = system: large crabgrass (Digitaria sanguinalis)
# How it was run: as §1
# [8] = system: lambsquarters (Chenopodium album)
# How it was run: as §1
# [9] = system: green foxtail (Setaria viridis)
# How it was run: as §1
# [10] = system: Surinam grass (Brachiaria decumbens)
# How it was run: as §1
# corn (Zea mays) = system: corn (Zea mays)
# How it was run: as §1
# [11] = system: velvetleaf (Abutilon theophrasti)
# How it was run: as §1
# [12] = system: woolly cupgrass (Eriochloa villosa)
# How it was run: as §1
# [13] = system: downy bromegrass (Bromus tectorum)
# How it was run: as §1
# [14] = system: yellow nutsedge (Cyperus esculentus)
# How it was run: as §1
# [15] = system: blackgrass (Alopecurus myosuroides)
# How it was run: as §1
# kochia (Kochia scoparia) = system: kochia (Kochia scoparia)
# How it was run: as §1
# [16] = 31 g ai/ha, postemergence, scale 0 to 100, 0 is no effect, 100 is complete control
# [17] = 62 g ai/ha, postemergence, 0 is no effect, 100 is complete control, 13 to 15 days
# [18] = Postemergence, 125 g ai/ha, visual rating after 13 to 15 days, scale 0 (no effect) to 100 (complete control)
# [19] = Postemergence, 250 g ai/ha, scale 0 to 100 (0 no effect, 100 complete control)
smiles,measurement,setting,value
O=C1CCCC(O)=C1C(=O)c1cnc(-c2ccc(Br)cc2)n(-c2ccccc2)c1=O [Compound 70],"Plant response rating, Foxtail, Giant",[1]; [16],75
same,"Foxtail, Giant plant response rating (0 to 100 scale)",[1]; [17],85
same,"Plant response rating, Foxtail, Giant",[1]; [18],95
same,"Plant response rating, Foxtail, Giant",[1]; [19],98
same,"Plant response rating, Ryegrass, Italian",[2]; [16],10
same,"Ryegrass, Italian plant response rating (0 to 100 scale)",[2]; [17],10
same,"Plant response rating, Ryegrass, Italian",[2]; [18],50
same,"Plant response rating, Ryegrass, Italian",[2]; [19],70
same,"Plant response rating, Johnsongrass",[3]; [16],65
same,Johnsongrass plant response rating (0 to 100 scale),[3]; [17],70
same,"Plant response rating, Johnsongrass",[3]; [18],80
same,"Plant response rating, Johnsongrass",[3]; [19],98
same,"Plant response rating, Ragweed",[4]; [16],60
same,Ragweed plant response rating (0 to 100 scale),[4]; [17],70
same,"Plant response rating, Ragweed",[4]; [18],75
same,"Plant response rating, Ragweed",[4]; [19],80
same,"Plant response rating, Bermudagrass",[5]; [16],75
same,Bermudagrass plant response rating (0 to 100 scale),[5]; [17],85
same,"Plant response rating, Bermudagrass",[5]; [18],95
same,"Plant response rating, Bermudagrass",[5]; [19],98
same,"Plant response rating, Goosegrass",[6]; [16],75
same,Goosegrass plant response rating (0 to 100 scale),[6]; [17],85
same,"Plant response rating, Goosegrass",[6]; [18],85
same,"Plant response rating, Goosegrass",[6]; [19],95
same,"Plant response rating, Crabgrass, Large",[7]; [16],80
same,"Crabgrass, Large plant response rating (0 to 100 scale)",[7]; [17],90
same,"Plant response rating, Crabgrass, Large",[7]; [18],95
same,"Plant response rating, Crabgrass, Large",[7]; [19],100
same,"Plant response rating, Lambsquarters",[8]; [16],85
same,Lambsquarters plant response rating (0 to 100 scale),[8]; [17],98
same,"Plant response rating, Lambsquarters",[8]; [18],100
same,"Plant response rating, Lambsquarters",[8]; [19],100
same,"Plant response rating, Foxtail, Green",[9]; [16],80
same,"Foxtail, Green plant response rating (0 to 100 scale)",[9]; [17],85
same,"Plant response rating, Foxtail, Green",[9]; [18],98
same,"Plant response rating, Foxtail, Green",[9]; [19],98
same,"Plant response rating, Surinam Grass",[10]; [16],65
same,Surinam Grass plant response rating (0 to 100 scale),[10]; [17],65
same,"Plant response rating, Surinam Grass",[10]; [18],95
same,"Plant response rating, Surinam Grass",[10]; [19],100
same,"Plant response rating, Corn",corn (Zea mays); [16],15
same,Corn plant response rating (0 to 100 scale),corn (Zea mays); [17],35
same,"Plant response rating, Corn",corn (Zea mays); [18],60
same,"Plant response rating, Corn",corn (Zea mays); [19],75
same,"Plant response rating, Velvetleaf",[11]; [16],75
same,Velvetleaf plant response rating (0 to 100 scale),[11]; [17],80
same,"Plant response rating, Velvetleaf",[11]; [18],100
same,"Plant response rating, Velvetleaf",[11]; [19],100
same,"Plant response rating, Cupgrass, Woolly",[12]; [16],45
same,"Cupgrass, Woolly plant response rating (0 to 100 scale)",[12]; [17],65
same,"Plant response rating, Cupgrass, Woolly",[12]; [18],90
same,"Plant response rating, Cupgrass, Woolly",[12]; [19],90
same,"Plant response rating, Bromegrass, Downy",[13]; [16],10
same,"Bromegrass, Downy plant response rating (0 to 100 scale)",[13]; [17],50
same,"Plant response rating, Bromegrass, Downy",[13]; [18],70
same,"Plant response rating, Bromegrass, Downy",[13]; [19],70
same,"Plant response rating, Nutsedge, Yellow",[14]; [16],10
same,"Nutsedge, Yellow plant response rating (0 to 100 scale)",[14]; [17],15
same,"Plant response rating, Nutsedge, Yellow",[14]; [18],40
same,"Plant response rating, Nutsedge, Yellow",[14]; [19],60
same,"Plant response rating, Blackgrass",[15]; [16],30
same,Blackgrass plant response rating (0 to 100 scale),[15]; [17],35
same,"Plant response rating, Blackgrass",[15]; [18],35
same,"Plant response rating, Blackgrass",[15]; [19],50
same,"Plant response rating, Kochia",kochia (Kochia scoparia); [16],65
same,Kochia plant response rating (0 to 100 scale),kochia (Kochia scoparia); [17],65
same,"Plant response rating, Kochia",kochia (Kochia scoparia); [18],75
same,"Plant response rating, Kochia",kochia (Kochia scoparia); [19],98
